Biological target: T1, Oxysterols receptor LXR-beta (Homo sapiens, UniProt P55055)
T1 sequence (P55055 whole entry): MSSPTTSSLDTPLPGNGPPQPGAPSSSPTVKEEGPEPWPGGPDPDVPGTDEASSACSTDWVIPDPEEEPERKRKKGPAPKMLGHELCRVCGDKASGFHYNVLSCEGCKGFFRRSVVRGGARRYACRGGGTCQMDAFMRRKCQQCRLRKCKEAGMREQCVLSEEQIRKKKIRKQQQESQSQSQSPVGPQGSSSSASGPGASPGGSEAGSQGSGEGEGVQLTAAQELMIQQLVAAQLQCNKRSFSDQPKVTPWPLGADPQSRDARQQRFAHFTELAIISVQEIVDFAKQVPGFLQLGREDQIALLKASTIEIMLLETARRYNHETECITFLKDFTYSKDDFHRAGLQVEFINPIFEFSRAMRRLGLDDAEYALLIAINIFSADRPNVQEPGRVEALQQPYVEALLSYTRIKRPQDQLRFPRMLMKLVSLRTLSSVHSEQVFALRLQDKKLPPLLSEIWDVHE
Test: HTRF Cofactor Peptide Recruitment Assay
Details: pH 7.5; 22 °C
Protocol: Polyhistidine-tagged human LXR ligand-binding domain was mixed with the test compound, biotin-SRC1 peptide, streptavidin-allophycocyanin, and europium labeled anti-polyhistidine antibody in reaction buffer, and the mixture was incubated in a 384-well assay plate format.

- EC50: 230 nM
Structure (SMILES): CC(C)(C)OC(=O)n1c(-c2ccc(CCNS(=O)(=O)c3ccc(-c4ccccn4)s3)cc2)cc2ccccc21 [tert-butyl 2-[4-(2-{[5-(pyridin-2-yl)thiophene-2-]sulfonamido}ethyl)phenyl]-1H-indole-1-carboxylate]

From BindingDB's records for doi:10.1016/j.bmcl.2007.06.017 (Tanabe Research Laboratories Usa, 2007)
